Data from PMC11079024, “Identification of a family of species-selective complex I inhibitors as potential anthelmintics” (Nature Communications, 2024).
Several values for one entry are separate records, joined by “and”; a condition that tells them apart may be missing. Equal entries are not always repeated. Where two headings read alike, the source gives them in different places.

Key:
[1] = tested on: anthelmintic/nematicide-resistant C. elegans mutant strains; assay: microbe, parasite or virus in culture; details: for LC50: Caenorhabditis elegans; for dose response data: mev-1 (tr355)
Source text: In addition to the Caenorhabditis elegans wild-type N2 strain, this work included the following C. elegans strains: CB1003 (kynu-1(e1003) X); anthelmintic-resistant strains—CB3474 (ben-1(e1880) III), CB193 (unc-29(e193) I), HY496 (bre-1(ye4) IV), RB2119 (acr-23(ok2804) V), JD608 (avr-14(ad1302) I; avr-15(ad1051) V; glc-1 (pk54) V), NM1968 (slo-1(js379) V), RP2635 (mev-1(tr355) III); benzimidazole-resistant CRISPR strains—ECA882 (ben-1(ean64) III), ECA917 (ben-1(ean98) III), ECA1075 (ben-1(ean143) III), ECA1080 (ben-1(ean148) III). This work also featured several additional free-living nematode strains: C. briggsae strain AF16, P. pacificus strain PS312, and P. hermaphrodita strain B178. The four CRISPR-generated benzimidazole-resistant C. elegans mutants were generously provided by Prof. Erik Andersen (Johns Hopkins University); PS312 and B178 were generously provided by Prof. Peter Roy (University of Toronto); all other strains were obtained from the Caenorhabditis Genetics Center (CGC, University of Minnesota). All strains were cultured and propagated at 20 °C on NGM (nematode growth medium) agar plates seeded with E. coli OP50 (Stiernagle, 2006)[56].
Liquid development and viability assays were adapted from a previously established chemical screening protocol (Burns et al.)[24]. In brief, a saturated culture of E. coli HB101 was concentrated 2-fold in liquid NGM and 40 μL of this suspension was distributed to each well of a 96-well flat-bottom culture plate. 0.5 μL chemical solution (or DMSO alone) was added to each well (1% DMSO v/v) using either a multi-channel pipette or a pinning tool (V&P Scientific). L1 worms synchronized from an embryo preparation performed the day prior were diluted to a concentration of ~2 worms/μL in M9 buffer; 10 μL worm suspension was then added to each well. Culture plates were sealed with parafilm and placed in a plastic container lined with wet paper towels to prevent evaporation. Containers were then incubated for 6 days at 20 °C with shaking at 165 rpm. Following incubation, 300 μL M9 was added to each well to decrease the turbidity of the HB101-NGM suspension. Single images of each microplate well were then taken on a Nikon Ti Eclipse inverted microscope (Nikon NIS Elements AR). Images were processed using Python scripts to isolate worm-associated pixels from background. Scores of worm development and viability were determined as the sum of worm-associated pixels in each well. Development/viability scores for each well were divided by the development /viability scores for the corresponding DMSO controls, resulting in a relative viability value for each chemical. At least three biological replicates were performed for each dose-response experiment; relative viability values were averaged across replicates.
Supplementary Table 2. Sensitivity of anthelmintic/nematicide-resistant strains to Class A, B, and C
benzimidazole complex I inhibitors.
LC50s were estimated from fitted dose-
response curves; all dose response data are the mean of at least three biological replicates.
Supplementary Table 2. Davie et al.

L1 wild-type C. elegans = assay: whole plant or invertebrate; details: Caenorhabditis elegans, 15 h, read-out: C. elegans KCN Survival Assay LC50
adult H. polygyrus = format: cell-based, Heligmosomoides polygyrus; details: aerobic; for Percent Worms Affected: affected = score equal to or lower than 1.5; for Worm viability score of individual worm, scale from 0 (dead) to 3 (motile): single worms; for effect on adult H. polygyrus viability: 10 µM, 24-h exposure
Procedure: After either 24- or 72 h chemical treatment, worm viability was manually scored by an examiner using a scale from 0 (dead) to 3 (motile); DMSO was used as a negative control in both 24- and 72 h treatments. The percentage of affected worms (i.e., worms with a score equal to or lower than 1.5) in each biological replicate is shown; data are from two biological replicates. Within each boxplot, black horizontal lines denote group medians, boxes span from the 25th to the 75th percentile of each group’s distribution, and whiskers extend to the maximum and minimum values.
The eleven benzimidazole derivatives were tested at a concentration of 10 µM under aerobic conditions against L3 and adult H. polygyrus.
For the larval assay, mice feces were collected 2 weeks post-infection and eggs were isolated. The eggs were left on agar at room temperature in the dark for eight to 10 days to allow them to develop into L3. Next, 30–40 L3 were incubated (37 °C, 5% CO2) in the culture medium (RPMI 1640 medium + 1% pen./strep. + 5% amphotericin B) containing the derivatives in 96-well plate (Corning, USA) reaching a final volume of 250 µL for 24 h. For the adult drug screening assay, female NMRI mice were euthanized with CO2 and adult H. polygyrus were dissected out of the intestines. Subsequently, three worms were exposed to the culture medium (RPMI 1640 medium + 1% pen./strep. + 5% amphotericin B) with the derivatives (2 mL) in a 24-well plate (Corning, USA) for either 24 or 72 h. DMSO ( < 1%) served as a negative control in both assays. All conditions were tested in duplicates. Finally, 80 µL of hot water ( ~ 80 °C) for L3 and 500 µL of hot water (~80 °C) for adults were added to the wells to check for their viability under a microscope (Carl Zeiss, Germany). Larvae were categorized as being either alive or dead, depending on whether they moved or not. […] The whole experiment was performed two times i.e., two independent biological replicates for both life stages (L3s and adults) and exposure times (24 and 72 h).

[2] = read-out: C. elegans Development & Viability LC50, acr-23(ok2804)
[3] = read-out: C. elegans Development & Viability LC50, avr-14(ad1302), avr-15(ad1051), glc-1(pk54)
[4] = read-out: C. elegans Development & Viability LC50, ben-1(e1880)
[5] = read-out: C. elegans Development & Viability LC50, bre-1(ye4)
[6] = read-out: C. elegans Development & Viability LC50, mev-1(tr355)
[7] = read-out: C. elegans Development & Viability LC50, slo-1(js379)
[8] = read-out: C. elegans Development & Viability LC50, unc-29(e193)
[9] = concentration step 1 of 13 (c108)
[10] = concentration step 4 of 13 (c111)
[11] = adult H. polygyrus, replicate 1, 24 hours after treatment
[12] = adult H. polygyrus, replicate 2, 24 hours after treatment
[13] = adult H. polygyrus, in vitro, 24 hours, per biological replicate
[14] = adult H. polygyrus, in vitro, 24 hours
[15] = adult H. polygyrus, in vitro, 72 hours, per biological replicate
[16] = replicate 1, 24 hours after treatment, worms with score equal to or lower than 1.5
[17] = replicate 2, 24 hours after treatment, worms with score equal to or lower than 1.5

Compound | LC50 [1, 2] | LC50 [1, 3] | LC50 [1, 4] | LC50 [1, 5] | LC50 [1, 6] | LC50 [1, 7] | LC50 [1, 8] | dose response data [1, 9] | dose response data [1, 10] | LC50 (L1 wild-type C. elegans) | Percent Worms Affected (adult H. polygyrus; [11]) | Percent Worms Affected (adult H. polygyrus; [12]) | # of Worms Affected (adult H. polygyrus; [13]) | Percent Worms Affected (worms with a score equal to or lower than 1.5) (adult H. polygyrus; [13]) | Worm viability score of individual worm, scale from 0 (dead) to 3 (motile) (adult H. polygyrus; [14]) | Percent Worms Affected (worms with a score equal to or lower than 1.5) (adult H. polygyrus; [15]) | # of Worms Affected (adult H. polygyrus; [16]) | # of Worms Affected (adult H. polygyrus; [17]) | effect on adult H. polygyrus viability (adult H. polygyrus) | other results
Cc1nc2ccccc2n1Cc1ccc(Cl)cc1 [STK697993] | 34.9 µM | 28.3 µM | 38.6 µM | 31.1 µM | 28.5 µM | 16.1 µM | 22.9 µM | 0.989 and 1.000 | 0.994 and 1.000 | 8.2 µM | 17% | 17% | 1 | 17% | 2.5 and 1.5 | 17% and 100% | 1 | 1 |  | 
C=C(C)[C@H]1Cc2c(ccc3c2O[C@@H]2COc4cc(OC)c(OC)cc4[C@@H]2C3=O)O1 [Rotenone, reference compound] | 2.1 µM | 1.4 µM | 3.4 µM | 3.5 µM | 3.2 µM | 1 µM | 1.5 µM |  |  | 0.8 µM |  |  |  |  |  |  |  |  |  | 
Cc1ccccc1OCCCCn1cnc2ccccc21 [Compound 7732524] | 50.2 µM | 46.5 µM | 50 µM | 41.2 µM | 42.9 µM | 31.4 µM | 37.8 µM | 0.998 and 1.000 | 1.000 and 0.845 | 6.4 µM | 100% | 67% | 4 and 6 | 67% | 1.25 (4×) and 1 | 83% and 100% | 6 | 4 | potent effects | dose response data ([1]; concentration step 3 of 13 (c110)): 0.989 and 1.000; dose response data ([1]; concentration step 5 of 13 (c112)): 1.000 and 0.955; dose response data ([1]; concentration step 6 of 13 (c113)): 1.000 and 0.835; dose response data ([1]; concentration step 7 of 13 (c114)): 1.000; dose response data ([1]; concentration step 8 of 13 (c115)): 1.000 and 0.746; Worm viability score of individual worm, scale from 0 (dead) to 3 (motile) (adult H. polygyrus; adult H. polygyrus, in vitro, 72 hours): 0.5
CC(C)Cc1ccc(C(C)c2nc3ccccc3n2C)cc1 (stereo not drawn) [NPD8790] | > 1000 µM | > 1000 µM | > 1000 µM | > 1000 µM | > 1000 µM | 177 µM | > 1000 µM |  |  | 14.3 µM |  |  |  |  |  |  |  |  | potent effects | 
